Assay results as given in patent publication US4289748A, “Ultrasensitive enzymatic radioimmunoassay method” (United States of America, priority 1979, dated 1981).
Values belong to the compound of their own block, whether it stands above or below them.

Assays:
[1] = target: alkaline phosphatase-IgG (goat anti-rabbit) conjugate (Bos taurus, UniProt P19111); experiment: Enzyme kinetics of alkaline phosphatase-IgG conjugate with varying AMP concentrations, double reciprocal plot; format: biochemical, calf; details: 10 mM diethanolamine buffer pH 9.8, 37° C., 30 minutes, conjugate 2×10^-8 mg/ml; double reciprocal plot (FIG. 4b)
Description: To determine the enzyme kinetics of alkaline phosphatase-IgG (goat anti-rabbit) conjugate, varying concentrations of adenosine-5'-monophosphate were added to a 10^6 dilution of the enzyme-IgG conjugate. […] Alkaline phosphatase conjugate (2×10^-8 milligrams per milliliter) was added to 10 mM diethanolamine buffer having a pH of 9.8, containing various concentrations of AMP. The reaction mixtures were incubated at 37° C. for 30 minutes. The tritium-labelled adenosine released was determined by column chromatography utilizing DEAE Sephadex by applying an 0.05 milliliter aliquot of the reaction mixture to a column packed with 1.5 milliliters DEAE Sephadex A-25 followed by elutation with a total of 4.5 milliliters of 0.01 M diethanolamine buffer with a pH of 9.8, containing 0.1 mM unlabelled adenosine in two fractions. 20 ml of liquid scintillator, Aquasol®, was added to each fraction and the tritium-labelled adenosine was measured in a liquid scintillation counter. The Km was calculated to be approximately 4 mM by a double reciprocal plot of the Michalis-Menton equation which is shown in FIG. 4b. […] The counting of the actual scintillation counter was adjusted in accordance with standard techniques to yield DPM, disintegrations per minute. Varying concentrations of diethanolomine buffer and MgCl2 were tested. […]

[2] = target: alkaline phosphatase-IgG conjugate (Bos taurus, UniProt P19111); experiment: Effect of reaction products on the alkaline phosphatase-IgG conjugate assay (tritium-AMP hydrolysis); format: biochemical, calf; details: 100 picamole tritium-AMP, 10 mM buffer pH 9.0, 37° C.
Description: Triplicates of the assay mixture containing 100 picamole of tritium-AMP and 10^-8 milligrams of enzyme conjugate in 0.1 milliliter of 10 mM buffer with a pH of 9.0 were incubated at 37° C. from 0 to 48 hours. Aliquots of 50 microliters of the reaction mixtures were withdrawn for determination of enzyme activity at 0.5, 1.5, 4.5, 24 and 48 hours. The enzyme activity was nearly linear for 90 minutes with approximately 2% of the tritium-AMP hydrolyzed to tritium-adenosine and phosphate. At 24 and 48 hours, the enzyme reaction became slower. Since the tritium-AMP radioindicator was still in excess, the reduction of enzyme activity could be secondary to enzyme degradation and/or product inhibition. To determine the effects of reaction products on the assay, either phosphate (2 or 20 picamoles) or adenosine (20 picamoles) was added to the assay mixtures. 2 and 20 picamole phosphate inhibited alkaline phosphatase activity by 8% and 90% respectively. […] The variation in the triplicate samples was small. For reaction times of less than 5 hours, the variation in either duplicate or triplicate samples was less than 10% of the mean value.

alkaline phosphatase-IgG conjugate, sequence (P19111 20-506 limits assumed): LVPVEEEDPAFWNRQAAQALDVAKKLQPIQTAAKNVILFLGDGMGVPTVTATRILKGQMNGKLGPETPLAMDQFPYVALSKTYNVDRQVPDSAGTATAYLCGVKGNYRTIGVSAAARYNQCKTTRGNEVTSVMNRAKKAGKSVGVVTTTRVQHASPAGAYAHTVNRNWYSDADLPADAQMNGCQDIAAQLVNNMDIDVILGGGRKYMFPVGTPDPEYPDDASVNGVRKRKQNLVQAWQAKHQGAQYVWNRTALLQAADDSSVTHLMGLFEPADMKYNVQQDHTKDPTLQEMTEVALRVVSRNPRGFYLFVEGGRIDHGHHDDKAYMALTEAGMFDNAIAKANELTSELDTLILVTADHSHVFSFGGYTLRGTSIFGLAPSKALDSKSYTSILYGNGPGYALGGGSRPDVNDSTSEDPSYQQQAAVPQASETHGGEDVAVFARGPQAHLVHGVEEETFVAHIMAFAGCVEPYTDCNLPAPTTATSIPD
alkaline phosphatase-IgG (goat anti-rabbit) conjugate, sequence (P19111 20-506 limits assumed): as above

Km [1]: ~4 mM
Compound: Nc1ncnc2c1ncn2[C@@H]1O[C@H](COP(=O)(O)O)[C@@H](O)[C@H]1O [adenosine-5'-monophosphate]

Compound: Nc1ncnc2c1ncn2[C@@H]1O[C@H](CO)[C@@H](O)[C@H]1O [adenosine]
effect on the activity of the phosphatase ([2]; 20 picamole adenosine added to 0.1 ml assay mixture): no detectable effect

inhibition of alkaline phosphatase activity ([2]; 2 picamole phosphate added to 0.1 ml assay mixture): 8%
inhibition of alkaline phosphatase activity ([2]; 20 picamole phosphate added to 0.1 ml assay mixture): 90%
Compound: phosphate
